Measured values: patent publication US4775662A, “Leukotriene antagonists” (SmithKline Beckman Corporation, priority 1987, dated 1988)
Where a name gives a salt, the structure may show the parent alone.

How the values were obtained:
[1] = molecular target: T1, leukotriene D4 (LTD4) induced contraction of guinea pig tracheal tissues (Cavia porcellus, UniProt Q2NNR5); assay: In vitro inhibition of LTD4-induced contraction of guinea pig tracheal spiral strips (pA2); type: cell-based, guinea pig (adult male albino Hartley strain); conditions: for Kb: In vitro, LTD4, guinea pig trachea, EC30 relative to carbachol, 30 min pretreatment
T1 construct: Guinea pig (adult male albino Hartley strain) tracheal spiral strips; from tissue; host or cells: guinea pig trachea (spiral strips, adult male albino Hartley strain)
T1 sequence (Q2NNR5 1-340): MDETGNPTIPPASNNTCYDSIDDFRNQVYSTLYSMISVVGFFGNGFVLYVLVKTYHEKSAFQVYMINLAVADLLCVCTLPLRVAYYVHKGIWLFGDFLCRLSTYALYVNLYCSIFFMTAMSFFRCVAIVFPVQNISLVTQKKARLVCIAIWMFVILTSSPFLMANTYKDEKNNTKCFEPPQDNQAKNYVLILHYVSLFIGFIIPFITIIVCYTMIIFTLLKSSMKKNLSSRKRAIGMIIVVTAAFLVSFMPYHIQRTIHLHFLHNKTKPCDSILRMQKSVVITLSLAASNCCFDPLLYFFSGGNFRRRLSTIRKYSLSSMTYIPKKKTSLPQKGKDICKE
Experimental: (§1) The leukotriene antagonist activity of the compounds of this invention is measured by the ability of the compound to inhibit leukotriene induced contraction of guinea pig tracheal tissues in vitro and to inhibit leukotriene induced bronchoconstriction in guinea pigs in vivo. The following methodologies were employed:
In vitro: Guinea pig (adult male albino Hartley strain) tracheal spiral strips of approximate dimensions 2 to 3 mm cross-sectional width and 3.5 cm length were bathed in modified Krebs buffer in jacketed 10 ml tissue bath and continously aerated with 95% O2 /5% CO2. The tissues were connected via silk suture to force displacement transducers for recording isometric tension. The tissues were equilibrated for 1 hr., pretreated for 15 minutes with meclofenamic acid (1 μM) to remove intrinsic prostaglandin responses, and then pretreated for an additional 30 minutes with either the test compound or vehicle control. A cumulative concentration-response curve for LTD4 on triplicate tissues was generated by successive increases in the bath concentration of the LTD4. In order to minimize intertissue variability, the contractions elicited by LTD4 were standardized as a percentage of the maximum response obtained to a reference agonist, carbachol (10 μM).
(§2) Calculations: The averages of the triplicate LTD4 concentration-response curves both in the presence and absence of the test compound were plotted on log graph paper. The concentration of LTD4 needed to elicit 30% of the contraction elicited by carbachol was measured and defined as the EC30. The pA2 value for the test compound was determined by the following equations: [formula] In vivo: Anesthetized, spontaneously breathing guinea pigs (Adult male albino Hartley strain) were monitored on a Buxco pulmonary mechanics computer. Changes in airway resistance (RL) were calculated by the computer on a breath-by-breath basis at isovolumic points from signals measuring airflow and transpulmonary pressure using differential pressure transducers. Animals received either test compound or vehicle control intravenously via the jugular vein. LTD4 was then injected into the jugular vein. The bronchoconstriction produced was reflected by % changes in airways resistance relative to the baseline values obtained prior to injection of the test compound or vehicle control. Each guinea pig received either vehicle control or test compound.

[2] = system: leukotriene (LTD4) induced bronchoconstriction in guinea pigs; assay: In vivo inhibition of LTD4-induced bronchoconstriction in anesthetized, spontaneously breathing guinea pigs (airway resistance, RL); design: species or system guinea pig (adult male albino Hartley strain); conditions: Cavia porcellus, intravenous, LTD4 challenge, guinea pig, read-out: RL (average % inhibition of change in airway resistance)
Experimental: as §1, §2
Calculations: The average of 3-6 animals per treatment was calculated using the % changes in the pulmonary parameters for control and test compound-treated animals. The average % inhibition by the test compound was calculated from the following equation: [formula]

Row | Kb [1] | partial agonist (footnote to pA2) ([1]; footnote (c) to pA2 5.0) | Structure (SMILES) | inhibition in vivo at 5 mg/kg [2] | inhibition in vivo at 10 mg/kg [2]
1 | 5.01 µM |  | CCCCCCCCCC/C=C\[C@H](SCCC(=O)O)[C@H](O)CCC(=O)O (relative stereo) [Example 14, 4-hydroxy-5-[(2-carboxyethyl)thio]-6(Z)-heptadecenoic acid] |  | 
2 | 6.31 µM |  | CCCCCCCCCCCC/C=C\[C@H](SCC(N)C(=O)NCC(=O)O)[C@H](O)CCC(=O)O (single isomer, unassigned; isomer 4) [Example 1(i) 4(R),5(S) isomer, hydrate] | 96% | 
3 | 1.26 µM |  | CCCCCCCCCCCC/C=C\[C@H](SCC(=O)O)[C@H](O)CCC(=O)O (relative stereo) [Example 5, 5-[(carboxymethyl)thio]-4-hydroxy-6(Z)-nonadecenoic acid] |  | 
4 |  |  | CCCCCCCCCCCC/C=C\C(SCCC(=O)O)C(O)CC(=O)O (centres unmarked) [Example 10, 3-hydroxy-4-[(2-carboxyethyl)thio]-5(Z)-octadecenoic acid] |  | 88%
5 |  |  | CCCCCCCCCCCC/C=C\[C@H](SCCC(=O)N(C)CC(=O)O)[C@H](O)CCC(=O)O (relative stereo) [Example 4, 5-[(3-carboxymethyl-N-methylamino-3-oxopropyl)thio]-4-hydroxy-6(Z)-nonadecenoic acid] | 90% | 
6 | 3.98 µM |  | CCCCCCCCCCCC/C=C\[C@H](SCCC(=O)O)[C@H](O)CCC(N)=O (relative stereo) [Example 12, 5-[(2-carboxyethyl)thio]-4-hydroxy-6(Z)-nonadecenamide] |  | 
7 | 7.94 µM |  | CCCCCCCCCCCC/C=C\[C@@H](SCC(N)C(=O)O)[C@@H](O)CCC(=O)O (stereo partly drawn) [Example 8(d), 4(S)-Hydroxy-5(R)-[(2-amino-2-carboxyethyl)thio]-6(Z)-nonadecenoic acid, sodium salt] |  | 
8 | 10 µM | partial agonist | CCCCCCCCCCCC/C=C\[C@@H](SCC(N)C(=O)NCC(=O)O)[C@@H](O)CCC(=O)O (single isomer, unassigned; isomer 5) [Example 1(i) 4(S),5(R) isomer, 5-[(2-amino-3-carboxymethylamino-3-oxopropyl)thio]-4-hydroxy-6(Z)-nonadecenoic acid] |  | 
9 | 7.94 µM |  | CCCCCCCCCCCC/C=C\[C@H](SCC(N)C(=O)O)[C@H](O)CCC(=O)O (stereo partly drawn) [Example 8(c), 4(R)-Hydroxy-5(S)-[(2-amino-2-carboxyethyl)thio]-6(Z)-nonadecenoic acid, sodium salt] |  | 
10 | 0.251 µM |  | CCCCCCCCCCCC/C=C\C(CCC(=O)O)SCCC(=O)O (centres unmarked) [Example 16, 4-[(2-carboxyethyl)thio]-5(Z)-octadecenoic acid] |  | 
11 | 0.631 µM |  | CCCCCCCCCCCC/C=C\[C@H](SCCC(=O)O)[C@H](O)CCC(=O)O (relative stereo) [Example 2, 4-hydroxy-5-[(2-carboxyethyl)thio]-6(Z)-nonadecenoic acid] | 91% | 
12 | 0.631 µM |  | CCCCCCCCCCCC/C=C\[C@H](SCCC(=O)NCC(=O)O)[C@H](O)CCC(=O)O (relative stereo) [Example 3, 5-[(3-carboxymethylamino-3-oxopropyl)thio]-4-hydroxy-6(Z)-nonadecenoic acid] | 36% | 
13 | 0.631 µM |  | CCCCCCCCCCCC/C=C\[C@H](SCCCC(=O)O)[C@H](O)CCC(=O)O (relative stereo) [Example 6, 5-[(3-carboxypropyl)thio]-4-hydroxy-6(Z)-nonadecenoic acid] | 88% | 
14 | 3.16 µM |  | CCCCCCCCCCCC/C=C\[C@H](SCC(N)C(=O)NCC(N)=O)[C@H](O)CCC(=O)O (some centres unmarked) [Example 9] | 98% | 
15 | 12.6 µM |  | CCCCCCCCCCCC/C=C\C(SCC(N)C(=O)NCC(=O)O)C(O)CCC(N)=O (centres unmarked) [Example 13] |  | 
16 | 7.94 µM |  | CCCCCCCCCCCCCC/C=C\[C@H](SCCC(=O)O)[C@H](O)CCC(=O)O (relative stereo) [Example 15, 4-hydroxy-5-[(2-carboxyethyl)thio]-6(Z)-heneicosenoic acid] |  | 
17 | 7.94 µM |  | CCCCCCCCCCCC/C=C\[C@H](SCCC(N)=O)[C@H](O)CCC(=O)O (relative stereo) [Example 7, 5-[[2-(aminocarbonyl)ethyl]thio]-4-hydroxy-6(Z)-nonadecenoicacid] | 38% | 
18 | 3.16 µM |  | CCCCCCCCCCCC/C=C\C(CCCC(=O)O)SCCC(=O)O (centres unmarked) [Example 11, 5-[(2-carboxyethyl)thio]-6(Z)-non-adecenoic acid] |  | 98%
